Results as given in PubChem BioAssay (NCI).
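How tested: cells in 96-well plates exposed to compound for 48 hours at five concentrations. TGI marks complete inhibition of growth.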

What was measured:
Assay in all cases: NCI-60 cell line screen, 48 h
MOLT-4 leukemia = test system: MOLT-4 leukemia
HCT-15 colon = test system: HCT-15 colon
CAKI-1 renal = test system: CAKI-1 renal
MDA-MB-231 breast = test system: MDA-MB-231 breast
U251 CNS = test system: U251 CNS
NCI-H460 lung = test system: NCI-H460 lung
MCF7 breast = test system: MCF7 breast
TK-10 renal = test system: TK-10 renal
SNB-75 CNS = test system: SNB-75 CNS
OVCAR-4 ovarian = test system: OVCAR-4 ovarian
SK-OV-3 ovarian = test system: SK-OV-3 ovarian
M14 melanoma = test system: M14 melanoma
MALME-3M melanoma = test system: MALME-3M melanoma
IGROV1 ovarian = test system: IGROV1 ovarian
OVCAR-5 ovarian = test system: OVCAR-5 ovarian
SK-MEL-28 melanoma = test system: SK-MEL-28 melanoma
NCI-H23 lung = test system: NCI-H23 lung
HCC-2998 colon = test system: HCC-2998 colon
HOP-62 NSCLC = test system: HOP-62 NSCLC
LOX IMVI melanoma = test system: LOX IMVI melanoma
COLO 205 colon = test system: COLO 205 colon
HT29 colon = test system: HT29 colon
RPMI-8226 leukemia = test system: RPMI-8226 leukemia
UACC-62 melanoma = test system: UACC-62 melanoma
SN12C renal = test system: SN12C renal
UACC-257 melanoma = test system: UACC-257 melanoma
BT-549 breast = test system: BT-549 breast
CCRF-CEM leukemia = test system: CCRF-CEM leukemia
OVCAR-8 ovarian = test system: OVCAR-8 ovarian
K-562 leukemia = test system: K-562 leukemia
ACHN renal = test system: ACHN renal
T-47D breast = test system: T-47D breast
KM12 colon = test system: KM12 colon
MDA-N = test system: MDA-N
EKVX NSCLC = test system: EKVX NSCLC
NCI-H226 lung = test system: NCI-H226 lung
NCI-H522 lung = test system: NCI-H522 lung
SF-539 CNS = test system: SF-539 CNS
DU-145 prostate = test system: DU-145 prostate
UO-31 renal = test system: UO-31 renal
SNB-19 CNS = test system: SNB-19 CNS
OVCAR-3 ovarian = test system: OVCAR-3 ovarian
RXF 393 renal = test system: RXF 393 renal
NCI/ADR-RES ovarian = test system: NCI/ADR-RES ovarian
SR leukemia = test system: SR leukemia
A549 NSCLC = test system: A549 NSCLC
HOP-92 NSCLC = test system: HOP-92 NSCLC
SK-MEL-5 melanoma = test system: SK-MEL-5 melanoma
HCT-116 colon = test system: HCT-116 colon
A498 renal = test system: A498 renal
SF-268 CNS = test system: SF-268 CNS
MDA-MB-435 = test system: MDA-MB-435
786-0 renal = test system: 786-0 renal
SK-MEL-2 melanoma = test system: SK-MEL-2 melanoma
SF-295 CNS = test system: SF-295 CNS
SW-620 colon = test system: SW-620 colon
HS 578T breast = test system: HS 578T breast
HL-60(TB) leukemia = test system: HL-60(TB) leukemia
PC-3 prostate = test system: PC-3 prostate

CCOC(=O)/C=C(/C(=O)OCC)n1ccc(=O)[nH]c1=O
TGI (MOLT-4 leukemia): 6.12 µM
TGI (HCT-15 colon): 9.39 µM
TGI (CAKI-1 renal): 2.3 µM
TGI (MDA-MB-231 breast): 26.4 µM
TGI (U251 CNS): 27.3 µM
TGI (NCI-H460 lung): 30.5 µM
TGI (MCF7 breast): 14.9 µM
TGI (TK-10 renal): 10.5 µM
TGI (SNB-75 CNS): 29.2 µM
TGI (OVCAR-4 ovarian): 38.7 µM
TGI (SK-OV-3 ovarian): 32.9 µM
TGI (M14 melanoma): 13.2 µM
TGI (MALME-3M melanoma): 4.4 µM
TGI (IGROV1 ovarian): 31.1 µM
TGI (OVCAR-5 ovarian): 14.4 µM
TGI (SK-MEL-28 melanoma): 18.4 µM
TGI (NCI-H23 lung): 30.4 µM
TGI (HCC-2998 colon): 32.3 µM
TGI (HOP-62 NSCLC): 35.7 µM
TGI (LOX IMVI melanoma): 22.3 µM
TGI (COLO 205 colon): 3.99 µM
TGI (HT29 colon): 36 µM
TGI (RPMI-8226 leukemia): 11.3 µM
TGI (UACC-62 melanoma): 25.7 µM
TGI (SN12C renal): 19.6 µM
TGI (UACC-257 melanoma): 25.2 µM
TGI (BT-549 breast): 24.9 µM
TGI (CCRF-CEM leukemia): 3.99 µM
TGI (OVCAR-8 ovarian): 27.4 µM
TGI (K-562 leukemia): 6.55 µM
TGI (ACHN renal): 14.6 µM
TGI (T-47D breast): 16.6 µM
TGI (KM12 colon): 34.8 µM
TGI (MDA-N): 25.6 µM
TGI (EKVX NSCLC): 23 µM
TGI (NCI-H226 lung): 14.5 µM
TGI (NCI-H522 lung): 2.72 µM
TGI (SF-539 CNS): 34.8 µM
TGI (DU-145 prostate): 29 µM
TGI (UO-31 renal): 27.8 µM
TGI (SNB-19 CNS): 29.8 µM
TGI (OVCAR-3 ovarian): 12.8 µM
TGI (RXF 393 renal): 13.8 µM
TGI (NCI/ADR-RES ovarian): 40.4 µM
TGI (SR leukemia): 16.8 µM
TGI (A549 NSCLC): 33.8 µM
TGI (HOP-92 NSCLC): 4.32 µM
TGI (SK-MEL-5 melanoma): 31 µM
TGI (HCT-116 colon): 7.14 µM
TGI (A498 renal): 38.2 µM
TGI (SF-268 CNS): 39.6 µM
TGI (MDA-MB-435): 24.4 µM
TGI (786-0 renal): 11.3 µM
TGI (SK-MEL-2 melanoma): 30.4 µM
TGI (SF-295 CNS): 34.7 µM
TGI (SW-620 colon): 3.99 µM
TGI (HS 578T breast): 37.9 µM
TGI (HL-60(TB) leukemia): 4.08 µM
TGI (PC-3 prostate): 26.8 µM
